Test results from ChEMBL document CHEMBL1133119, “Synthesis of apicidin-derived quinolone derivatives: parasite-selective histone deacetylase inhibitors and antiproliferative agents” (J Med Chem, 2000).
≈ marks a conversion by molar mass, not a printed value.

What was measured:
[1] = tested on: HeLa; assay: Tested for mammalian cell (HeLa)-based antiproliferative assay; type: functional, Homo sapiens
[2] = Tested for parasite (malaria)-based antiproliferative assay; type: functional
[3] = target: Histone deacetylase; assay: Inhibition of [3H]-Apicidin A binding to Histone deacetylase of chick liver extract; set-up: species or system Gallus gallus
[4] = target: Histone deacetylase; assay: Tested for Histone deacetylase enzyme inhibition assay using mammalian cell nuclear extract (HeLa); type: protein assay, Homo sapiens
[5] = target: Histone deacetylase (Eimeria tenella); assay: Displacement of [3H]-Apicidin A from Histone deacetylase of Eimeria tenella extract
[6] = Tested for parasite (malaria)-based antiproliferative assay; ND means no data; type: functional

Row | SMILES | AP50 [1] [ng/mL] | IC50 [2] [µg/mL] | IC50 [3] [µg/mL] | IC50 [4] [nM] | IC50 [5] [nM] | IC50 [6] [µg/mL]
1 | CCC(=O)CCCCC[C@@H]1NC(=O)[C@H]2CCCCN2C(=O)[C@H]([C@@H](C)CC)NC(=O)[C@H](c2cn(CC)c3ccccc3c2=O)NC1=O | >10000 | 0.24 (≈ 0.377 µM) | 2 (≈ 3.15 µM) | 330 | 110 | –
2 | CCC(=O)CCCCC[C@@H]1NC(=O)[C@H]2CCCCN2C(=O)[C@H]([C@@H](C)CC)NC(=O)[C@H](Cc2cn(CC(=O)O)c3ccccc23)NC1=O | – | – | 0.065 (≈ 0.0997 µM) | – | 99.7 | 1 (≈ 1.53 µM)
3 | CCC(=O)CCCCC[C@@H]1NC(=O)[C@H]2CCCCN2C(=O)[C@H]([C@@H](C)CC)NC(=O)[C@H](Cc2cn(CC(=O)OC)c3ccccc23)NC1=O [listing 1 of 2 here] | – | 0.25 (≈ 0.375 µM) | 0.005 (≈ 0.00751 µM) | – | 10.5 | –
4 | CCC(=O)CCCCC[C@@H]1NC(=O)[C@H]2CCCCN2C(=O)[C@H]([C@@H](C)CC)NC(=O)[C@H](c2cnc3ccccc3c2O)NC1=O | >10000 | 0.04 (≈ 0.0658 µM) | 1 (≈ 1.65 µM) | – | 24.7 | –
5 | CCC(=O)CCCCC[C@@H]1NC(=O)[C@H]2CCCCN2C(=O)[C@H]([C@@H](C)CC)NC(=O)[C@H](c2cn(OC)c3ccccc3c2=O)NC1=O | 10000 | 0.04 (≈ 0.0627 µM) | 1 (≈ 1.57 µM) | 86 | 62.7 | –
6 | CCC(=O)CCCCC[C@@H]1NC(=O)[C@H]2CCCCN2C(=O)[C@H]([C@@H](C)CC)NC(=O)[C@H](c2cn(CC(=O)O)c3ccccc3c2=O)NC1=O [listing 1 of 2 here] | – | 0.55 (≈ 0.826 µM) | 5 (≈ 7.51 µM) | – | 3000 | –
7 | CCC(=O)CCCCC[C@@H]1NC(=O)[C@H]2CCCCN2C(=O)[C@H]([C@@H](C)CC)NC(=O)[C@H](Cc2cn(CC)c3ccccc23)NC1=O | – | 0.18 (≈ 0.289 µM) | 0.01 (≈ 0.0161 µM) | – | 161 | –
8 | CCCn1cc([C@@H]2NC(=O)[C@H](CCCCCC(=O)CC)NC(=O)[C@H]3CCCCN3C(=O)[C@H]([C@@H](C)CC)NC2=O)c(=O)c2ccccc21 [listing 1 of 2 here] | – | 0.44 (≈ 0.677 µM) | 0.7 (≈ 1.08 µM) | 230 | 192 | –
9 | CCC(=O)CCCCC[C@@H]1NC(=O)[C@H]2CCCCN2C(=O)[C@H]([C@@H](C)CC)NC(=O)[C@H](Cc2cn(C)c3ccccc23)NC1=O | 225 | 0.02 (≈ 0.0329 µM) | 0.005 (≈ 0.00823 µM) | – | 19.7 | –
10 | CCC(=O)CCCCC[C@@H]1NC(=O)[C@H]2CCCCN2C(=O)[C@H]([C@@H](C)CC)NC(=O)[C@H](c2cn(C)c3ccccc3c2=O)NC1=O [listing 1 of 2 here] | >10000 | – | – | – | – | –
11 | CCC(=O)CCCCC[C@@H]1NC(=O)[C@H]2CCCCN2C(=O)[C@H]([C@@H](C)CC)NC(=O)[C@H](c2cn(CC(=O)O)c3ccccc3c2=O)NC1=O [listing 2 of 2 here] | >10000 | – | – | – | – | –
12 | CCC(=O)CCCCC[C@@H]1NC(=O)[C@H]2CCCCN2C(=O)[C@H]([C@@H](C)CC)NC(=O)[C@H](c2cn(CC(=O)OC)c3ccccc3c2=O)NC1=O [listing 1 of 2 here] | – | 0.79 (≈ 1.16 µM) | 2 (≈ 2.94 µM) | – | 441 | –
13 | CCC(=O)CCCCC[C@@H]1NC(=O)[C@H]2CCCCN2C(=O)[C@H]([C@@H](C)CC)NC(=O)[C@H](Cc2cn(CC(=O)OC)c3ccccc23)NC1=O [listing 2 of 2 here] | 150 | – | – | – | – | –
14 | CCC(=O)CCCCC[C@@H]1NC(=O)[C@H]2CCCCN2C(=O)[C@H]([C@@H](C)CC)NC(=O)[C@H](c2cn(CC(=O)OC)c3ccccc3c2=O)NC1=O [listing 2 of 2 here] | >10000 | – | – | – | – | –
15 | CCCn1cc([C@@H]2NC(=O)[C@H](CCCCCC(=O)CC)NC(=O)[C@H]3CCCCN3C(=O)[C@H]([C@@H](C)CC)NC2=O)c(=O)c2ccccc21 [listing 2 of 2 here] | >10000 | – | – | – | – | –
16 | CCCn1cc(C[C@@H]2NC(=O)[C@H](CCCCCC(=O)CC)NC(=O)[C@H]3CCCCN3C(=O)[C@H]([C@@H](C)CC)NC2=O)c2ccccc21 [listing 1 of 2 here] | – | 0.25 (≈ 0.393 µM) | 0.01 (≈ 0.0157 µM) | – | 47.2 | –
17 | CCC(=O)CCCCC[C@@H]1NC(=O)[C@H]2CCCCN2C(=O)[C@H]([C@@H](C)CC)NC(=O)[C@H](c2cn(C)c3ccccc3c2=O)NC1=O [listing 2 of 2 here] | – | 0.117 (≈ 0.188 µM) | 1 (≈ 1.61 µM) | 241 | 96.5 | –
18 | CCCn1cc(C[C@@H]2NC(=O)[C@H](CCCCCC(=O)CC)NC(=O)[C@H]3CCCCN3C(=O)[C@H]([C@@H](C)CC)NC2=O)c2ccccc21 [listing 2 of 2 here] | 625 | – | – | – | – | –
19 | CCC(=O)CCCCC[C@@H]1NC(=O)[C@H]2CCCCN2C(=O)[C@H]([C@@H](C)CC)NC(=O)[C@H](Cc2cn(OC)c3ccccc23)NC1=O [APICIDIN] | 78 | 0.057 (≈ 0.0914 µM) | – | – | – | –
